Holding throughout (experiment): DTP human tumour cell line panel, 48 h
Assay [1] deals with SNB-75 CNS.
The test system of assay [2] is OVCAR-5 ovarian.
The subject of assay [3] is SF-539 CNS.
Assay [4] has as its system HCC-2998 colon.
For assay [5], the system named is M14 melanoma.
The subject of assay [6] is SW-620 colon.
The test system of assay [7] is OVCAR-3 ovarian.
The subject of assay [8] is 786-0 renal.
In assay [9] the test system is HCT-116 colon.
Assay [10] relates to HS 578T breast.

Structures are written as SMILES. “And” between values parts separate entries of the source, which are not always exact repeats. Equal entries are not always repeated.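 Step 1: Grow cells in 96-well plates. Step 2: Expose to compound for 48 hours at 5 concentrations. Step 3: Interpolate endpoints linearly; if unreached, use highest concentration. GI50 = concentration required for 50% inhibition of growth. TGI denotes the concentration required for complete inhibition of growth.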 Where only a bound is given, the exact number is not on record here.

The term TGI denotes the concentration giving total growth inhibition. Read a high TGI as lower sensitivity of the cells. Turning to `COC(=O)CCC12CCC(=O)C1[C@@H](C(=O)OC)C[C@H]2C(=O)OC` (some centres undefined), the TGI in assay [1], in [2], in [3], in assay [4], in assay [5] and in [6] was over 100 µM each time. For the same compound, the TGI in [7], in assay [8] and in assay [9] was over 100 µM each time.

The GI50 is the concentration giving 50% growth inhibition. `CCOC(=O)c1c(C)n(Cc2ccc(Cl)cc2Cl)c2c1cc1oc(=O)c(=O)n3cnc2c13`: the GI50 was 3.39 µM in [1]; 24.1 µM in assay [10]; 20.6 µM in assay [3]; 22.3 µM in assay [5]; 22.1 µM in assay [6]; 14.4 µM in assay [7]. The figures for the GI50 in assay [8] and in [9] were 18.3 µM and 18.6 µM, respectively. In addition, the TGI came out at 15.3 µM in [1]; 64.2 µM in assay [10]; 38.3 µM in [3]; 41.6 µM in assay [5]; 40.5 µM in assay [6]; 31.9 µM in assay [7]. In addition, the TGI in [8] is 34.9 µM; in [9], 36 µM.

For the compound `CNc1ccc2ncccc2c1[N+](=O)[O-]`, the concentration for total growth inhibition (TGI) in [1], in assay [2], in assay [3], in assay [4], in [5] and in assay [6] was over 100 µM throughout. For the same compound, the concentration for total growth inhibition (TGI) in assay [7], in [8] and in [9] was over 100 µM throughout.

Regarding `N/C(=N\NS(=O)(=O)c1ccccc1)Oc1ccc(Br)cc1Br`, the TGI in assay [1] is over 100 µM; in assay [2] it was over 100 µM; in assay [3], over 100 µM; in [4] it was over 100 µM; in assay [5], over 100 µM; in [6], 24.3 µM. Moreover, the total growth inhibition concentration (TGI) in assay [7], in assay [8] and in assay [9] was over 100 µM in each case.

In the case of `CC(C)(O)/C=C/C(=O)[C@](C)(O)[C@H]1[C@H](O)C[C@@]2(C)[C@@H]3CC=C4[C@@H](C[C@H](O)C(=O)C4(C)C)[C@]3(C)C(=O)C[C@]12C`, the 50% growth inhibitory concentration (GI50) is 0.0496 µM in assay [1]; 0.692 µM in [2]; 0.217 µM in assay [3]; 0.371 µM and 0.647 µM in [4]; 0.0563 µM in [5]; 0.104 µM in assay [6]. Moreover, the GI50 in [7] is 0.125 µM; in assay [8] it was 0.218 µM; in assay [9], 0.164 µM. The TGI in assay [3] is 0.614 µM and 0.264 µM; in assay [4], 8.67 µM; in [5] it was 5.94 µM; in [6] it was 9.68 µM; in [7], 1.02 µM; in assay [8] it was 0.939 µM and 0.362 µM.

Consider `Cc1ccc(Oc2ccccc2N)cc1`, for which the TGI was 60.6 µM in [1]; over 100 µM in [2]; 40.1 µM in [3]; 34.2 µM in assay [4]; over 100 µM in assay [5]; over 100 µM in assay [6]. For the same compound, the TGI in [7] amounted to 55 µM; in [8], 86.8 µM; in assay [9], 36 µM.

With `Cc1cc(Cl)ccc1OCC(=O)Nc1nc(N)nc(N)n1`, the TGI in assay [1], in assay [2], in assay [10], in assay [3], in assay [5] and in [6] was over 100 µM throughout. Moreover, the TGI in assay [7], in [8] and in assay [9] was over 100 µM throughout.

For the compound `O=C(C#Cc1ccccc1)N1c2ccccc2CC1c1c[nH]c2ccccc12` (centres undefined), the TGI was 37.6 µM in assay [1]; 64.4 µM in assay [2]; 31.1 µM in assay [3]; 31.3 µM in assay [4]; 28.8 µM in [5]; 30.3 µM in assay [6]. Moreover, the TGI in assay [7] was found to be 32.1 µM; in [8], 34.8 µM; in assay [9] it was 26.5 µM.

As for `O=C1C(=O)N(c2ccc(Cl)cc2)C(=O)C(=O)C1c1nc2ccccc2s1`, the TGI in assay [1], in assay [2], in assay [3], in assay [4], in assay [5] and in assay [6] was over 100 µM in each case. Moreover, the TGI in assay [7], in [8] and in assay [9] was over 100 µM each time.

Regarding `COc1ccc(-c2cc(C(=O)Nc3cc(C(F)(F)F)cc(C(F)(F)F)c3)c3ccccc3n2)cc1`, the TGI was 29.6 µM in assay [1]; over 100 µM in assay [2]; 28.4 µM in assay [3]; 29.7 µM in [4]; 25 µM in assay [5]; 21 µM in assay [6]. Besides, the total growth inhibition concentration (TGI) in assay [7] is 15.5 µM; in [8], 28.1 µM; in [9], 18.6 µM.

As to `O=c1c2cc(-c3ccccc3)sc2ncn1Cc1ccc(Cl)c(Cl)c1`, the GI50 is 18.1 µM in assay [1]; 5.46 µM in assay [2]; 11 µM in assay [10]; 14 µM in assay [3]; 25.7 µM in assay [5]; over 100 µM in [6]. Moreover, the results for the GI50 in assay [7], in assay [8] and in assay [9] were 15.8 µM, 14.2 µM and 15 µM, respectively. The TGI in [1] was 48.7 µM; in assay [2] it was over 100 µM; in assay [10], 45.1 µM; in assay [3], 43 µM; in assay [5], over 100 µM; in [6] it was over 100 µM. Also, the TGI in assay [7] worked out at 36.2 µM; in [8], 43.3 µM; in assay [9], 41.1 µM.

As for `COC(=O)C1=C(CS(=O)c2ccc([N+](=O)[O-])cc2[N+](=O)[O-])C2C=CC1C2` (centres undefined), the TGI in [1] was 76.6 µM; in assay [2] it was over 100 µM; in assay [3], 51.2 µM; in assay [4] it was 95.3 µM; in [5] it was over 100 µM; in assay [6], 28.6 µM. Moreover, the TGI was determined as 66.8 µM in [7], 62.6 µM in [8] and 45.1 µM in assay [9].

`[O-][N+]1(CC[N+]2([O-])CCCCC2)CCCCC1`: the TGI in assay [1], in assay [2], in assay [10], in assay [3], in assay [5] and in [6] was over 100 µM each time. Moreover, the total growth inhibition concentration (TGI) in assay [7], in assay [8] and in [9] was over 100 µM each time.

These data come from PubChem BioAssay (NCI).
